Source: US20250281502A1, “NEW DRUG APPLICATION” (Centre National de la Recherche Scientifique, priority 2021, published 2025)
Values belong to the compound of their own block, whether it stands above or below them.

Key:
[1] = system: Human Myeloma Cell Lines (HMCLs); assay: CellTiter-Glo cell viability, IC50 in human myeloma cell lines; format: cell-based
Description: JJN3, OPM2, RPM18266, LP1, AMO1, SKMM2 human myeloma cell lines (HMCLs) were obtained from ATCC (Molshein, France) and were cultured in RPMI 1640 medium, supplemented with 10% fetal calf serum (Biochrom, Berlin, Germany) and 2 mM L-Glutamine. The interleukin-6-dependent cell lines XG1, XG2, XG6, XG7, XG12, XG19, XG20, XG21 were obtained as previously described and maintained in the presence of 2 ng/mL recombinant IL-6 (R&D Systems, Oxon, UK), 10% fetal calf serum and 2 mM L-Glutamine.
Cells in culture were stained using trypan blue solution (Sigma-Aldrich, St. Louis MO, USA) and viable cells were counted under a light microscope. The CellTiter-Glo Luminescent Viability assay (Promega, Leiden, The Netherlands) was used to measure the effect on cell viability according to manufacturer's instructions, and the 50% inhibition (IC50) was determined using GraphPad Prism software (http://www.graphpad.com/scientific-software/prism/).

XG2 cell line = assay: Melphalan IC50 with or without Pyridostatin, XG2 cell line; format: cell-based; conditions: Homo sapiens
[2] = system: primary MM cells from patients; assay: Primary patient samples, viable CD138+ MM cells by flow cytometry; format: cell-based, human; conditions: co-cultured with bone marrow microenvironment (FIG. 6B, 6C)
XG2-MeIR cell line = assay: Melphalan response with or without Pyridostatin, Melphalan-resistant XG2 cell line; format: cell-based, human; conditions: 4 days (FIGS. 14 and 15)
XG7-RH = assay: Western blot of DNA damage response in XG7 with inducible RNase H; format: cell-based, human; conditions: XG7-RH with doxycycline, 5 h or 24 h (FIG. 7)
Description: FIGS. 7A and 7B represent Western blots. Doxy stands for doxycycline. PDS stands for Pyridostatin (concentration in μM). XG7 cell line was transduced with a doxycycline-inducible lentivirus containing RNase H gene (XG7-RH). XG7-RH was cultured with or without doxycycline in absence or presence of Pyridostatin during 5 h or 24 h. Western blot membranes were stained with anti-Phospho-Chk2, anti-Phospho-P53, anti-P53, anti-PARP, anti-myc (FIG. 7A) and anti-p21, anti-p16, anti-p27 and anti-gH2AX (FIG. 7B). Tubulin protein level was used as control.
Western Blot Analysis Western blot analysis was performed as previously described (Viziteu, E. et al., Leukemia 31, 2104-2113, 2017). Tubulin was used as loading control. All antibodies used were purchased from Cell Signaling, except for p21, p27, Myc, and phospho-Histone H2A.X. Myc antibody was obtained from Santa Cruz biotechnology (Texas, USA), phospho-Histone H2A.X antibody from Merck Millipore (Sigma-Aldrich), and p27 antibody was from Sigma-Aldrich.

[3] = system: normal cells from the bone marrow microenvironment; assay: Primary patient samples, co-cultured normal bone marrow cells by flow cytometry; format: cell-based, human; conditions: five MM patients (FIG. 6C)
Description: FIG. 6A represents the IC50 of Pyridostatin (nM) for […]: a is OPM2; b is XG12; c is XG21; d is XG19; e is RPM18266; f is LP1; g is XG6; h is JJN3; I is XG2; j is XG7; k: L363; I is XG1; m is AMO1; n is SKMM2 and o is XG20. IC50 of Pyridostatin +/−SD are representative of 3 independent experiments. NA: not reached. FIG. 6B represents the Pyridostatin toxicity on bone marrow cells (x-axis is the Pyridostatin concentration in μM; y-axis is the cell count in percentage of the control (0 μM of Pyridostatin)). The toxicity of Pyridostatin was assessed on primary bone marrow cells from one MM patient (dark grey bars), co-cultured with normal bone marrow microenvironment (light grey). The toxicity on MM cells and normal bone marrow cells was assessed by flow cytometry using CD138 and CD28 marker cells. FIG. 6C represents the Pyridostatin toxicity on bone marrow cells (x-axis is the Pyridostatin concentration in μM; y-axis is the cell count in percentage of the control (0 μM of Pyridostatin)). The toxicity of Pyridostatin was assessed on primary bone marrow cells from five MM patient (black bars) and co-cultured with normal bone marrow microenvironment (grey bars). The toxicity on MM cells and normal bone marrow cells was assessed by flow cytometry using CD138 and CD28 marker cells. Data are mean values of five independent experiments. […]

MM cell = MM cell growth, apoptosis and cell cycle after Pyridostatin; format: cell-based, human

Structure (SMILES): CCNC(=O)C[C@@H]1N=C(c2ccc(Cl)cc2)c2cc(OC)ccc2-n2c(C)nnc21 [I-BET-762, (4S)-6-(4-Chlorophenyl)-N-ethyl-8-methoxy-1-methyl-4H-[1,2,4]triazolo[4,3-a][1,4]benzodiazepine-4-acetamide]
sensitivity of HMCLs with high TRC score compared to low TRC score [1]: significantly more sensitive

Structure (SMILES): N[C@@H](Cc1ccc(N(CCCl)CCCl)cc1)C(=O)O [Melphalan]
IC50 (XG2 cell line; 96 h, black bars, Melphalan and Pyridostatin at 1.25 μM for 4 days, first value printed for XG2 (FIG. 15)): 1490 nM | IC50 (XG2 cell line; 96 h, black bars, Melphalan and Pyridostatin at 1.25 μM for 4 days, second value printed for XG2 (FIG. 15)): 632 nM | IC50 (XG2 cell line; grey bars, Melphalan alone, first value printed for XG2 (FIG. 15)): 632 nM | IC50 (XG2 cell line; grey bars, Melphalan alone, second value printed for XG2 (FIG. 15)): 350 nM

IC50 ([1]; Homo sapiens, 10 HMCLs (FIG. 6A), read-out: IC50 of Pyridostatin): ≤ 2000 nM
Structure (SMILES): NCCOc1cc(C(=O)Nc2cc(OCCN)c3ccccc3n2)nc(C(=O)Nc2cc(OCCN)c3ccccc3n2)c1 [Pyridostatin]
toxicity on primary MM cells [2]: toxicity | resistance to PDS ([1]; 5 cell lines (FIG. 6A)): higher resistance | re-sensitization of resistant cells to Melphalan (XG2-MeIR cell line): re-sensitize the resistant cells (XG2-MeIR) to Melphalan | DNA damage response after PDS treatment on inducible RNase H expression (phosphorylation of Chk2, p53; p21 and p16 expression) (XG7-RH): significant reduction of DNA damage response | toxicity on co-cultured normal cells [3]: without any significant toxicity | MM cell growth (MM cell): inhibits MM cell growth | apoptosis (MM cell): induces apoptosis | cell cycle (MM cell): significant accumulation in G2/M phase

Structure (SMILES): COc1cc(OC)c2c(=O)[nH]c(-c3cc(C)c(OCCO)c(C)c3)nc2c1 [RVX-208, 2-[4-(2-hydroxyethoxy)-3,5-dimethylphenyl]-5,7-dimethoxy-4(3H)-quinazolinone]
sensitivity of HMCLs with high TRC score compared to low TRC score [1]: significantly more sensitive
